Assay results reported in PubChem BioAssay AID2060484 (Molecular Pharmacology Branch, DTP, NCI, 2025).

Test system: SUM149PT spheroids with HUVEC/MSC, viability
Experiment: Anticancer human tumor SUM149PT cell line growth inhibition [GQUAD];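 note: spheroids exposed to drugs for seven days before readout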;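 for viability, T/C: percent viability relative to DMSO vehicle control taken as 100%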
Conditions: for IC50: curve of first compound; for viability, T/C: stronger effect = lower value
Description: DNA G-quadruplex Stabilizer Agents in Combinations in Complex Spheroids
A high-throughput screen of multi-cell type tumor spheroids was designed to identify active combinations of DNA G-quadruplex stabilizer agents and targeted small molecules. Complex spheroids include a stromal component modeled by human endothelial cells (HUVEC) and fibroblasts modeled by human mesenchymal stem cells (MSCs). The concentration ranges selected for each drug and investigational agent were based upon clinically achievable concentrations if the clinical Cmax of the agent was known.
Compounds. The drugs and investigational agents: pidnarulex (CX-5461; NSC782164), APTO-253 (NSC789042), BRACO-19 (NSC847499), peposertib (NSC802822), ceralasertib (NSC780249), elimusertib (NSC800525), camonsertib (NSC841442), AZD-1390 (NSC803789), olaparib (NSC753686), talazoparib (NSC767125), ART-558 (NSC835418), sotorasib (NSC818433), MRTX-1133 (NSC836407), SN-38 (NSC673596), topotecan (NSC609699), etoposide (NSC141540), doxorubicin (NSC123127), gemcitabine (NSC613327), 5-fluorouracil (NSC19893), paclitaxel (NSC125973), vemurafenib (NSC761431), panobinostat (NSC761190), R-306465 (JNJ-16241199; NSC773264), adavosertib (NSC754352), TP-3654 (NSC805149), carboplatin (NSC241240), KSQ-4279 (NSC840948), and staurosporine (NSC755774) were obtained from the National Cancer Institute (NCI) Developmental Therapeutics Program Chemical Repository (34). The FDA-approved anticancer drug set is available from the NCI Developmental Therapeutics Program. […] The stock solutions were prepared in dimethyl sulfoxide (DMSO, Sigma-Aldrich, St. Louis, MO, cat. D2650) at 800-fold the tested concentration and stored at -70 degrees C prior to their use. All drugs and investigational agents were tested over a range starting from a high concentration at or near the clinical Cmax and decreasing in half-log increments. If the clinical Cmax for an agent had not been determined, the highest concentration tested was 10 microM.
2.3 Cell Culture. All cells were maintained in an incubator at 37 degrees C and 5% CO2 with 95% humidity. The PDC lines were cultured according to standard operating procedures established by the NCI PDMR. All PDCs were thawed and cultured in Matrigel-coated flasks prepared with a working solution of 1X Ham's F-12 nutrient mix, without supplementation (Invitrogen, cat. 11765054), 100 U/mL penicillin-streptomycin (Invitrogen, cat. 15140122), and 2.5% Matrigel (Corning Inc., cat. 354248) for the first three passages. The 857933-349-R-J2-PDC line was cultured in 6C/Colon 1B media, which includes advanced DMEM/F-12 (Thermo Fisher Scientific, cat. 12634028), 10 mM HEPES (Thermo Fisher Scientific, cat. 15630080), 1X GlutaMAX supplement (Thermo Fisher Scientific, cat. 35050061), 0.1 mg/mL primocin (InvivoGen, cat. ant-pm-2), 10% defined fetal bovine serum, heat inactivated (HyClone Laboratories Inc., cat. SH30070.03HI), 50% L-WRN conditioned media (ATCC, cat. CRL-3276), 1.25 mM N-Acetyl-L-cysteine (Sigma-Aldrich, cat. A9165), 10 mM nicotinamide (Sigma-Aldrich, cat. N0636), 1X B-27 supplement (Thermo Fisher Scientific, cat. 17504044), 1X N-2 supplement (Thermo Fisher Scientific, cat. 17502048), 10 microM Y-27632 dihydrochloride (Tocris Bioscience, cat. 1254), and 50 ng/mL human EGF recombinant protein (Thermo Fisher Scientific, cat. PHG0311). The 485176-168-R4-J1-PDC line was cultured in Panc media, which includes all 6C/Colon 1B media components plus 100 ng/mL human FGF-10 (Thermo Fisher Scientific, cat. 100-26), 500 nM SB-431542 (Selleckchem, cat. S1067), and gastrin (Tocris, cat. 3006).
[…]

[1] = second compound 0.0316 µM, first compound 0.0316 µM
[2] = second compound 0.0316 µM, first compound 0.1 µM
[3] = second compound 0.0316 µM, first compound 0.316 µM
[4] = second compound 0.0316 µM, first compound 1 µM
[5] = second compound 0.0316 µM, first compound 3.16 µM
[6] = second compound 0.0316 µM, first compound 10 µM
[7] = second compound 0.1 µM, first compound 0.0316 µM
[8] = second compound 0.1 µM, first compound 0.1 µM
[9] = second compound 0.1 µM, first compound 0.316 µM
[10] = second compound 0.1 µM, first compound 1 µM
[11] = second compound 0.1 µM, first compound 3.16 µM
[12] = second compound 0.1 µM, first compound 10 µM
[13] = second compound 0.316 µM, first compound 0.0316 µM
[14] = second compound 0.316 µM, first compound 0.1 µM
[15] = second compound 0.316 µM, first compound 0.316 µM
[16] = second compound 0.316 µM, first compound 1 µM
[17] = second compound 0.316 µM, first compound 3.16 µM
[18] = second compound 0.316 µM, first compound 10 µM
[19] = second compound 1 µM, first compound 0.0316 µM
[20] = second compound 1 µM, first compound 0.1 µM
[21] = second compound 1 µM, first compound 0.316 µM
[22] = second compound 1 µM, first compound 1 µM
[23] = second compound 1 µM, first compound 3.16 µM
[24] = second compound 1 µM, first compound 10 µM
[25] = second compound 3.16 µM, first compound 0.0316 µM
[26] = second compound 3.16 µM, first compound 0.1 µM
[27] = second compound 3.16 µM, first compound 0.316 µM
[28] = second compound 3.16 µM, first compound 1 µM
[29] = second compound 3.16 µM, first compound 3.16 µM
[30] = second compound 3.16 µM, first compound 10 µM
[31] = second compound 10 µM, first compound 0.0316 µM
[32] = second compound 10 µM, first compound 0.1 µM
[33] = second compound 10 µM, first compound 0.316 µM
[34] = second compound 10 µM, first compound 1 µM
[35] = second compound 10 µM, first compound 3.16 µM
[36] = second compound 10 µM, first compound 10 µM

Work on `COc1cccc2c1C(=O)c1c(O)c3c(c(O)c1C2=O)CC(O)(C(=O)CO)CC3OC1CC(N)C(O)C(C)O1` (centres undefined) + CN(C)c1ccc(Nc2c3ccc(NC(=O)CCN4CCCC4)cc3nc3cc(NC(=O)CCN4CCCC4)ccc23)cc1 yielded an IC50 (second compound 0.0316 µM) of 279 nM, an IC50 (second compound 0.1 µM) of 260 nM and an IC50 (second compound 0.316 µM) of 273 nM. It also gave an IC50 (second compound 1 µM) of 159 nM, an IC50 (second compound 3.16 µM) of 240 nM and an IC50 (second compound 10 µM) of 217 nM. For the same molecule, the viability, T/C [1] was 102%, the viability, T/C [2] was 67.8% and the viability, T/C [3] was 52.5%. It also gave a viability, T/C [4] of 27.3%, a viability, T/C [5] of 5.04% and a viability, T/C [6] of 1.9%. The viability, T/C [7] was 97.9%, the viability, T/C [8] was 67.9% and the viability, T/C [9] was 48.2%. The viability, T/C [10] was 27.4%, the viability, T/C [11] was 2.62% and the viability, T/C [12] was 0.68%. For the same molecule, the viability, T/C [13] was 79.5%, the viability, T/C [14] was 67.5% and the viability, T/C [15] was 46.9%. The viability, T/C [16] was 25.2%, the viability, T/C [17] was 2.96% and the viability, T/C [18] was 1.86%. For the same molecule, the viability, T/C [19] was 73.5%, the viability, T/C [20] was 53.2% and the viability, T/C [21] was 42.5%. The viability, T/C [22] was 23.4%, the viability, T/C [23] was 3.28% and the viability, T/C [24] was 1.27%. It also gave a viability, T/C [25] of 71%, a viability, T/C [26] of 58.4% and a viability, T/C [27] of 48.1%. It also gave a viability, T/C [28] of 24.1%, a viability, T/C [29] of 4.84% and a viability, T/C [30] of 2.15%. It also gave a viability, T/C [31] of 78.9%, a viability, T/C [32] of 59.2% and a viability, T/C [33] of 45.6%. The viability, T/C [34] was 28.1%, the viability, T/C [35] was 4% and the viability, T/C [36] was 2.22%.
For `O=c1[nH]cc(F)c(=O)[nH]1` + CN(C)c1ccc(Nc2c3ccc(NC(=O)CCN4CCCC4)cc3nc3cc(NC(=O)CCN4CCCC4)ccc23)cc1, the IC50 (second compound 0.0316 µM) was 8990 nM, the IC50 (second compound 0.1 µM) was > 10000 nM and the IC50 (second compound 0.316 µM) was 8350 nM. It also gave an IC50 (second compound 1 µM) of 8640 nM, an IC50 (second compound 3.16 µM) of 6640 nM and an IC50 (second compound 10 µM) of 4530 nM. It also gave a viability, T/C [1] of 105%, a viability, T/C [2] of 93.2% and a viability, T/C [3] of 99.2%. The viability, T/C [4] was 98.8%, the viability, T/C [5] was 63.5% and the viability, T/C [6] was 48.6%. For the same molecule, the viability, T/C [7] was 100%, the viability, T/C [8] was 92% and the viability, T/C [9] was 94.4%. For the same molecule, the viability, T/C [10] was 99.3%, the viability, T/C [11] was 61.5% and the viability, T/C [12] was 57.3%. It also gave a viability, T/C [13] of 86.5%, a viability, T/C [14] of 93.3% and a viability, T/C [15] of 86.5%. It also gave a viability, T/C [16] of 89.5%, a viability, T/C [17] of 70% and a viability, T/C [18] of 46.2%. For the same molecule, the viability, T/C [19] was 83.5%, the viability, T/C [20] was 91.6% and the viability, T/C [21] was 94.8%. For the same molecule, the viability, T/C [22] was 99.4%, the viability, T/C [23] was 68.8% and the viability, T/C [24] was 47.2%. For the same molecule, the viability, T/C [25] was 81.5%, the viability, T/C [26] was 80% and the viability, T/C [27] was 82.8%. For the same molecule, the viability, T/C [28] was 92.5%, the viability, T/C [29] was 60% and the viability, T/C [30] was 44.5%. For the same molecule, the viability, T/C [31] was 80.6%, the viability, T/C [32] was 80.9% and the viability, T/C [33] was 91.2%. The viability, T/C [34] was 94%, the viability, T/C [35] was 52.5% and the viability, T/C [36] was 44.3%.
